The assay deals with mean arterial pressure. Nature of the assay: Effect on vascular tone: blood pressure in anesthetized rats. The class given is in vivo. Conditions: rat; for duration of the hypotensive effect: i.v. The method, then:
Rats were anesthetized and a femoral vein and carotid artery were cannulated. While blood pressure was monitored by the carotid artery, Mn TM-2-PyP was injected i.v. at doses ranging from 0.1 to 3.0 mg/kg. Mean arterial pressure fell from 100-125 mmHg to 50-60 mmHg within five to ten minutes. The effect was transient, lasting up to 30 minutes at doses of 0.1 to 0.25 mg/kg. […] Scavenging of superoxide in vascular walls would potentiate the effects of nitric oxide producing hypotension.

Consider “manganese(III) 5,10,15,20-tetrakis(N-methylpyridyl)porphyrin [MnTM-2-PyP^5+]”, for which the “mean arterial pressure after injection” value (i.v. 0.1 to 3.0 mg/kg, fell from 100-125 mmHg within five to ten minutes) is listed as 50-60 mmHg. In addition, the “duration of the hypotensive effect” value was “up to 30 minutes” (doses of 0.1 to 0.25 mg/kg) and “up to two hours” (doses of 1-3 mg/kg).

Values taken from patent US20080113956A1, “Substituted Porphyrins” (priority 1997, published 2008).
